Reference: patent publication US10570104B2, “Metabolically programmed metal chelators and uses thereof” (University of Florida Research Foundation, Incorporated, priority 2015, dated 2020)
Entries after “also recorded” stand apart in the source; their conditions may differ. Where two headings read alike, the source gives them in different places.

How the values were obtained:
[1] = Tissue distribution/metabolism of chelators in rats given sc (HPLC); type: in vivo, Sprague-Dawley rats
Protocol: Collection of Chelator Tissue Distribution Samples from Rodents. Male Sprague-Dawley rats (250-350 g) were given a single subcutaneously injection of the monosodium salts of 8 and 11 prepared as described above at a dose of […]. At times 0.5, 1, 2, 4 and 8 hours after dosing (n=3 rats per time point), the animals were euthanized by exposure to CO2 gas. Blood was obtained via cardiac puncture into vacutainers containing sodium citrate. The blood was centrifuged, and the plasma was separated for analysis. The liver, kidney, heart, and pancreas were removed from the animals and frozen.
Tissue Analytical Methods. Tissue samples of animals treated with 8 were prepared for HPLC analysis by homogenizing them in H2O at a ratio of 1:1 (w/v). Then, as a rinse, CH3OH at a ratio of 1:3 (w/v) was added, and the mixture was stored at −20° C. for 30 min. This homogenate was centrifuged. The supernatant was diluted with H2O, vortexed, and filtered with a 0.2 μm membrane. Analytical separation was performed on a Supelco Discovery RP Amide C16 HPLC system with UV detection at 310 nm as described previously.^44,75 Mobile phase and chromatographic conditions were as follows: solvent A, 5% CH3CN/95% buffer (25 mM KH2PO4+2.5 mM 1-octanesulfonic acid, pH 3.0); solvent B, 60% CH3CN/40% buffer.
Tissue samples of animals treated with 11 were prepared for HPLC analysis by homogenizing them in 0.5 N HClO4 at a ratio of 1:3 (w/v). Then, as a rinse, CH3OH at a ratio of 1:3 (w/v) was added, and the mixture was stored at −20° C. for 30 min. This homogenate was centrifuged. The supernatant was diluted with 95% buffer (25 mM KH2PO4, pH 3.0)/5% CH3CN, vortexed, and filtered with a 0.2 μm membrane. Analytical separation was performed on a Supelco Ascentis Express RP-Amide HPLC system with UV detection at 310 nm as described previously. Mobile phase and chromatographic conditions were as for 8.
Ligand concentrations were calculated from the peak area fitted to calibration curves by nonweighted least-squares linear regression with Shimadzu Class-VP 7.4 software.

[2] = Chelator-induced iron clearance (ICE) in iron-overloaded Cebus apella primates; type: in vivo, Cebus apella monkeys; conditions: 75 μmol/kg, monosodium salt
Protocol: Iron Loading of Cebus apella Monkeys. The monkeys (3.5-6.5 kg) were iron overloaded with intravenous iron dextran as specified in earlier publications to provide about 500 mg of iron per kg of body weight; the serum transferrin iron saturation rose to between 70 and 80%.^38,40 At least 20 half-lives, 60 days, elapsed before any of the animals were used in experiments evaluating iron-chelating agents.
Primate Fecal and Urine Samples. Fecal and urine samples were collected at 24 hours intervals and processed as described previously^38,40,74 Briefly, the collections began 4 days prior to the administration of the test drug and continued for an additional 5 days after the drug was given. Iron concentrations were determined by flame absorption spectroscopy as presented in other publications.^38′^40
Drug Preparation and Administration.
Calculation of Chelator Iron Clearing Efficiency (ICE).

[3] = for Rat ICE (%): 300 μmol/kg, monosodium salt
Protocol: Sample collection and handling are as previously described.^38,40
Drug Preparation and Administration. In the iron clearing experiments, the rats were given 8-14 orally at a dose of 300 μmol/kg. […] The chelators were administered as their monosodium salts (prepared by the addition of 1 equiv of NaOH to a suspension of the free acid in distilled water).
Calculation of Chelator Iron Clearing Efficiency (ICE). The term “ICE” is used as a measure of the amount of iron excretion induced by a chelator. The ICE, expressed as a percent, is calculated as (ligand-induced iron excretion/theoretical iron excretion)×100. […] The theoretical iron outputs of the chelators were generated on the basis of a 2:1 ligand:iron complex. The efficiencies in the rats and monkeys were calculated as set forth elsewhere.^37 Data are presented as the mean±the standard error of the mean; p-values were generated via a one-tailed Student's t-test in which the inequality of variances was assumed, and a p-value of <0.05 was considered significant.

[4] = log Papp, octanol/TRIS buffer pH 7.4, shake flask direct method; type: physicochemical; conditions: not told
Text: The redesign of 2 was predicated on the observation that both ligands 2 and 3 were orally active iron chelators in rodents and primates (Table 1), and that when the 4′-(OH) of 2 was methylated, providing (S)-4,5-dihydro-2-(2-hydroxy-4-methoxyphenyl)-4-methyl-4-thiazolecarboxylic acid^43 [(S)-4′-(CH3O)-DADFT, 4], there was a remarkable enhancement in both ICE and lipophilicity (log Papp). The log Papp data are expressed as the log of the fraction of the chelator seen in the octanol layer; measurements were done in TRIS buffer, pH 7.4, using a “shake flask” direct method.^49 The more negative the log Papp, the less chelator is in the octanol phase, the less lipophilic. Unfortunately, the increase in ICE of 4 came with a concomitant increase in toxicity.^50 Thus, the delicate balance between the increase in ICE and toxicity with enhanced lipophilicity needed to be understood and exploited.

[5] = cited from earlier work
[6] = po, 150 μmol/kg; historical; cited from earlier work
[7] = po, 300 μmol/kg; historical; cited from earlier work

C[C@]1(C(=O)O)CSC(c2ccc(OCC(=O)O)cc2O)=N1 [Compound 14, (S)-4,5-dihydro-2-[2-hydroxy-4-(carboxymethoxy)phenyl]-4-methyl-4-thiazolecarboxylic acid]
detection in heart ([1]; sc 11, heart): not found in the 2-8 hour time points
tissue concentration ([1]; sc 11, heart, 0.5 hour): 17 nmol/g wet weight
tissue concentration ([1]; sc 11, heart, 1 hour): 23 nmol/g wet weight
tissue concentration ([1]; sc 11, kidney, 0.5 hour): 156 nmol/g wet weight
tissue concentration ([1]; sc 11, kidney, 1 hour): 201 nmol/g wet weight
tissue concentration ([1]; sc 11, kidney, 2 hours): 161 nmol/g wet weight
tissue concentration ([1]; sc 11, kidney, 8 hours): 5 nmol/g wet weight
detection in liver ([1]; sc 11, liver): only trace amounts of 14 were detected
share of total drug (parent+metabolites) ([1]; sc 11, liver, 0.5 hour): 18%
share of total drug (parent+metabolites) ([1]; sc 11, liver, 1 hour): 39%
detection in pancreas ([1]; sc 11, pancreas): Trace amounts of 14 were found at 0.5, 1, and 2 hours post dosing
share of total (parent+metabolites) ([1]; sc 11, plasma, 0.5 hour): 16%
share of total (parent+metabolites) ([1]; sc 11, plasma, 4 hours): 50%
share of total (parent+metabolites) ([1]; sc 11, plasma, 8 hours): the remainder
Cebus ICE (%) ([2]; po): 3.0±2.7%
Cebus ICE (%) ([2]; sc): 15.9±4.3%
Rat ICE (%) ([3]; po): 2.6 ± 1.6%
Rat ICE (%) ([3]; sc): 6.0 ± 1.9%
Log Papp [4]: −1.98

CCCCOc1ccc(C2=N[C@@H](C(=O)O)CS2)c(O)c1 [4′-butoxy analogue of 2, (S)-2-(4-butoxy-2-hydroxyphenyl)-4,5-dihydro-4-thiazolecarboxylic acid]
time of deaths ([5]; same scenario as with 10): ≤ 24 h

C[C@]1(C(=O)O)CSC(c2ccc(OCCOCCO)cc2O)=N1 [Compound 8, (S)-4,5-dihydro-2-[2-hydroxy-4-(5-hydroxy-3-oxapentyloxy)phenyl]-4-methyl-4-thiazolecarboxylic acid]
share of total drug concentration ([1]; sc 7, plasma, 0.5 hour): 5%
share of drug (parent+metabolite) ([1]; sc 8, 300 μmol/kg, liver, 0.5 hour): 53%
detection in liver ([1]; sc 8, 300 μmol/kg, liver, 8 hours): very little parent alcohol 8
proportion of 8 converted to 9 ([1]; sc 8, 300 μmol/kg, plasma, 0.5 hour post drug): ~60%
detection in plasma ([1]; sc 8, 300 μmol/kg, plasma, 8 hour): Neither the parent 8 nor the metabolite 9 was found at the 8 hour time point
conversion of 8 to 9 ([1]; sc 8, 300 μmol/kg, tissues): very efficiently oxidized to carboxylic acid 9; also recorded: very efficiently converted to acid 9; also recorded: very quickly oxidized to 9
Cebus ICE (%) ([2]; po): 9.8±3.4%
Rat ICE (%) ([3]; po): 15.4 ± 5.6%
Log Papp [4]: −0.53

C[C@]1(C(=O)O)CSC(c2ccccc2O)=N1 [Compound 1a, (S)-4,5-dihydro-2-(2-hydroxyphenyl)-4-methyl-4-thiazolecarboxylic acid]
gastrointestinal toxicity ([5]; in vivo): serious gastrointestinal (GI) problems
nephrotoxicity ([5]; in vivo): not overtly nephrotoxic

C[C@]1(C(=O)O)CSC(c2ccc(OCCCCCC(=O)O)cc2O)=N1 [Compound 12, (S)-4,5-dihydro-2-[2-hydroxy-4-(5-carboxypentyloxy)phenyl]-4-methyl-4-thiazolecarboxylic acid]
detection in heart ([1]; sc 11, heart): not found in the cardiac tissue at any of the time points
detection in kidney ([1]; sc 11, kidney): found at 0.5 and 1 hour post drug
detection in liver ([1]; sc 11, liver): not detected in the liver 2, 4, or 8 hours post dosing
share of total drug (parent+metabolites) ([1]; sc 11, liver, 0.5 hour): 11%
share of total drug (parent+metabolites) ([1]; sc 11, liver, 1 hour): 2%
detection in pancreas ([1]; sc 11, pancreas): not found at any of the time points
detection in plasma ([1]; sc 11, plasma): None of the first oxidation product of alcohol 11, the dicarboxylic acid 12, was detected in the plasma
Cebus ICE (%) ([2]; po): 10.6±4.0%
Cebus ICE (%) ([2]; sc): 18.8±8.7%
Rat ICE (%) ([3]; po): 8.8 ± 1.8%
Rat ICE (%) ([3]; sc): 6.5 ± 1.5%
Log Papp [4]: −1.90

C[C@]1(C(=O)O)CSC(c2ccc(OCCCC(=O)O)cc2O)=N1 [Compound 13, (S)-4,5-dihydro-2-[2-hydroxy-4-(3-carboxypropyloxy)phenyl]-4-methyl-4-thiazolecarboxylic acid]
detection in heart ([1]; sc 11, heart): not found in the later time points
tissue concentration ([1]; sc 11, heart, 0.5 hour): ~46 nmol/g wet weight
tissue concentration ([1]; sc 11, heart, 1 hour): ~46 nmol/g wet weight
detection in kidney ([1]; sc 11, kidney): not detectable 8 hours post dosing
tissue concentration ([1]; sc 11, kidney, 0.5 hour): ~300 nmol/g wet weight
tissue concentration ([1]; sc 11, kidney, 1 hour): ~300 nmol/g wet weight
detection in liver ([1]; sc 11, liver): no 13 remained in the liver
share of total drug (parent+metabolites) ([1]; sc 11, liver, 0.5 hour): 71%
share of total drug (parent+metabolites) ([1]; sc 11, liver, 1 hour): 59%
share of total drug (metabolites) ([1]; sc 11, liver, 2 hours): 66%
share of total drug (metabolites) ([1]; sc 11, liver, 4 hours): 70%
tissue concentration ([1]; sc 11, pancreas, 0.5 hour): 19 nmol/g wet weight
tissue concentration ([1]; sc 11, pancreas, 1 hour): 23 nmol/g wet weight
share of total (parent+metabolites) ([1]; sc 11, plasma, 0.5 hour): 62%
share of total (parent+metabolites) ([1]; sc 11, plasma, 4 hours): 50%
share of total (parent+metabolites) ([1]; sc 11, plasma, 8 hours): 65%
Cebus ICE (%) ([2]; po): 5.4±1.5%
Cebus ICE (%) ([2]; sc): 18.1±7.5%
Rat ICE (%) ([3]; po): 3.7 ± 1.7%
Rat ICE (%) ([3]; sc): 4.3 ± 1.1%
Log Papp [4]: −2.21

C[C@]1(C(=O)O)CSC(c2cccc(O)c2O)=N1 [Compound 3, (S)-2-(2,3-dihydroxyphenyl)-4,5-dihydro-4-methyl-4-thiazolecarboxylic acid]
Primate ICE (%) [6]: 23.1 ± 5.9%
Log Papp [4]: −1.17
Rodent ICE (%) [7]: 4.6 ± 0.9%

COCCCCCCOc1ccc(C2=N[C@@](C)(C(=O)O)CS2)c(O)c1 [Compound 10, (S)-4,5-dihydro-2-[2-hydroxy-4-(6-methoxyhexyloxy)phenyl]-4-methyl-4-thiazolecarboxylic acid]
time of death post drug ([3]; po 300 μmol/kg, bile duct-cannulated rats, one animal): about 22 hours
drug-induced iron excretion, peak ([3]; po 300 μmol/kg, 6 hours post drug): 300 μg/kg of iron
drug-induced iron excretion ([3]; po 300 μmol/kg, 24 hours post dosing): 80 μg/kg of iron
Rat ICE (%) ([3]; po): 15.8 ± 3.7%
overt toxicity ([3]; rats, po 300 μmol/kg, single dose): profoundly toxic; also recorded: very toxic; also recorded: Toxic in Rats
Log Papp [4]: 0.95
